This is an account of results in paper PMC11062922 (Nature Chemical Biology, 2023).

In experiment [1] the target is ABL1 (Homo sapiens, UniProt P00519). As to the kind of experiment: Kinobeads two-dose competition binding: ABL1. The following applies: sheet CATDS matrix 2; Gene Name ABL1.
In experiment [2] the target is T1, ACAD11 (Homo sapiens, UniProt Q709F0).
T1 construct: endogenous in cells
T1 sequence (Q709F0 1-780): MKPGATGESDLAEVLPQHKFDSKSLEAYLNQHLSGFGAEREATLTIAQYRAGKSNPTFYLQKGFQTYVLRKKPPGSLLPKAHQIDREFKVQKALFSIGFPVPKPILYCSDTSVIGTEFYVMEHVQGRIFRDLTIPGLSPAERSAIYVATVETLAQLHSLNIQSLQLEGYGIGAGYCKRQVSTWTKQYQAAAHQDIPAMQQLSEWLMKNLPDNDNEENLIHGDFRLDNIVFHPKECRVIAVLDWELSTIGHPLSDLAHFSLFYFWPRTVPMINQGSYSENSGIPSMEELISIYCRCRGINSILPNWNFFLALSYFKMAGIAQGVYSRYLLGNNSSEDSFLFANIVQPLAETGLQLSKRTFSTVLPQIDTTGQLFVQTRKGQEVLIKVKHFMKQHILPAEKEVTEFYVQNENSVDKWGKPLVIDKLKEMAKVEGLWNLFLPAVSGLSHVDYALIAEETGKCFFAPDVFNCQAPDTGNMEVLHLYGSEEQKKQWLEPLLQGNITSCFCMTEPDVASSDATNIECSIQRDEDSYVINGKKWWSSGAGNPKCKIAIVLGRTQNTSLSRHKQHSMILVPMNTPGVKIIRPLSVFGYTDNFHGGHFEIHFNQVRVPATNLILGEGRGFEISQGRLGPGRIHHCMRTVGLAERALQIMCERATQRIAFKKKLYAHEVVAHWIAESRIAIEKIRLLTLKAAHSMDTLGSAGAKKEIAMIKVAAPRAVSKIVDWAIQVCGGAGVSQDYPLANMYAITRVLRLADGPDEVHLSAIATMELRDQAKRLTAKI
The experiment is described as follows: Kinobeads two-dose competition binding: ACAD11. As to conditions: sheet CATDS matrix 2; Gene Name ACAD11.

Experiment [3] has as its target T2, AAK1 (Homo sapiens, UniProt Q2M2I8).
T2 construct: to maximize the representation of endogenous proteins; endogenous in cells
As to the kind of experiment: Kinobeads two-dose competition binding: AAK1.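 For all read-outs here: kinobeads competition pulldown from cell lysate, compound preincubated 45 min at 4 °C, bead-bound protein measured by label-free mass spectrometry against DMSO vehicle control.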 As to conditions: for CATDS: sheet CATDS matrix 2, Gene Name AAK1; for potency estimated from few doses: sheet "Kinobeads Drugmatrix - all", unit inferred, same values below 1000 recur in sheet "nanomolar", read-out: Kinobeads Drugmatrix - all: apparent Kd, AAK1.

For experiment [4], the target named is T3, ACOX1 (Homo sapiens, UniProt Q15067).
T3 construct: endogenous in cells
T3 sequence (Q15067 1-660): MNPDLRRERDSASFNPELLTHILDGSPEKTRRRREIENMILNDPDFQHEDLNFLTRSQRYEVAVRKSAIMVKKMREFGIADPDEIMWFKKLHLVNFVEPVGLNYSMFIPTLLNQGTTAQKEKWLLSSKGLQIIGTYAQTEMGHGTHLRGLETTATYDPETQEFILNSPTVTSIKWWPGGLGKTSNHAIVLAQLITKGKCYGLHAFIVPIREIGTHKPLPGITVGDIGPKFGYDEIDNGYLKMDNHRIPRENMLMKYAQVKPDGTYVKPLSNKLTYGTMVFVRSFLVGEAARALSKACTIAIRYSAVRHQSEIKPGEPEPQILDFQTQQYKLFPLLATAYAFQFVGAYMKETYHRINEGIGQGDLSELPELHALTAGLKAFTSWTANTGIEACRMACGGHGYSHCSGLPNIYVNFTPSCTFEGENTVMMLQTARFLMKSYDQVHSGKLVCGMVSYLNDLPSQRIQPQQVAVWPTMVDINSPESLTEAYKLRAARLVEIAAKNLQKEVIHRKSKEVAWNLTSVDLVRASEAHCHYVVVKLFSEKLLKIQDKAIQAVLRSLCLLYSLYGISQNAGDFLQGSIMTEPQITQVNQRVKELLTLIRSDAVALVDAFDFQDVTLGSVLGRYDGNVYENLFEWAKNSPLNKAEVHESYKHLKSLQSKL
The experiment is described as follows: Kinobeads two-dose competition binding: ACOX1.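 Note: competition of compounds with immobilized broad-spectrum kinase inhibitor beads in cell lysate at 100 and 1,000 nM, 45 min at 4 °C, bead-bound protein quantified by label-free MS versus DMSO.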 As to conditions: sheet CATDS matrix 2; Gene Name ACOX1.

Experiment [5] concerns the target T4, ABL2 (Homo sapiens, UniProt P42684).
T4 construct: endogenous in cells
The experiment is described as follows: Kinobeads two-dose competition binding: ABL2. The following applies: sheet CATDS matrix 2; Gene Name ABL2.

T2 sequence (Q2M2I8 whole entry): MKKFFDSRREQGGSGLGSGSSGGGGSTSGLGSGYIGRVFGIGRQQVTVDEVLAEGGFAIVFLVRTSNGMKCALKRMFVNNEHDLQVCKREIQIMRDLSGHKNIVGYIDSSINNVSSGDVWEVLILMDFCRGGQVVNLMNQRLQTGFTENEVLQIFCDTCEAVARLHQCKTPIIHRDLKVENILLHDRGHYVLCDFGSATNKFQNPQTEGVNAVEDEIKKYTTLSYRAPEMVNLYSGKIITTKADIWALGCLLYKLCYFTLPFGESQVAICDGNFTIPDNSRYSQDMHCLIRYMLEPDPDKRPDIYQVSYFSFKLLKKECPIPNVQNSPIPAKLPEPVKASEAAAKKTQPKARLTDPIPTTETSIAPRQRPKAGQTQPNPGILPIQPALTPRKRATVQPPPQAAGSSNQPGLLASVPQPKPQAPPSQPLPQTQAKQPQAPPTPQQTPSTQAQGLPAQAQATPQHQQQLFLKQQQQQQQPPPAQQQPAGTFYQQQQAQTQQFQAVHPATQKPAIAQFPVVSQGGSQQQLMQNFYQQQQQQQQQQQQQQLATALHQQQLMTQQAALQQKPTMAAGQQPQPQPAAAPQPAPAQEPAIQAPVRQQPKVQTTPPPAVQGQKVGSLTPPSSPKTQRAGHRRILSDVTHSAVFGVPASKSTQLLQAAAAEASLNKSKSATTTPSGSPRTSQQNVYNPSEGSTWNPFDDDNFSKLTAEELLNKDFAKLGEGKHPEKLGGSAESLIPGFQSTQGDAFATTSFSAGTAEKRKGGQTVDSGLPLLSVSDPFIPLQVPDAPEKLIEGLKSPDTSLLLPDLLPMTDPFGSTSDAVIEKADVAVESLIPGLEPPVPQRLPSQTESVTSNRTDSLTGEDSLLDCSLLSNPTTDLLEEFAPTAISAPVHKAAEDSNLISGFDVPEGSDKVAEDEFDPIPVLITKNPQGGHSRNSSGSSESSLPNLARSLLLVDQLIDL
Chain of ABL1 (P00519 28-1130 limits assumed): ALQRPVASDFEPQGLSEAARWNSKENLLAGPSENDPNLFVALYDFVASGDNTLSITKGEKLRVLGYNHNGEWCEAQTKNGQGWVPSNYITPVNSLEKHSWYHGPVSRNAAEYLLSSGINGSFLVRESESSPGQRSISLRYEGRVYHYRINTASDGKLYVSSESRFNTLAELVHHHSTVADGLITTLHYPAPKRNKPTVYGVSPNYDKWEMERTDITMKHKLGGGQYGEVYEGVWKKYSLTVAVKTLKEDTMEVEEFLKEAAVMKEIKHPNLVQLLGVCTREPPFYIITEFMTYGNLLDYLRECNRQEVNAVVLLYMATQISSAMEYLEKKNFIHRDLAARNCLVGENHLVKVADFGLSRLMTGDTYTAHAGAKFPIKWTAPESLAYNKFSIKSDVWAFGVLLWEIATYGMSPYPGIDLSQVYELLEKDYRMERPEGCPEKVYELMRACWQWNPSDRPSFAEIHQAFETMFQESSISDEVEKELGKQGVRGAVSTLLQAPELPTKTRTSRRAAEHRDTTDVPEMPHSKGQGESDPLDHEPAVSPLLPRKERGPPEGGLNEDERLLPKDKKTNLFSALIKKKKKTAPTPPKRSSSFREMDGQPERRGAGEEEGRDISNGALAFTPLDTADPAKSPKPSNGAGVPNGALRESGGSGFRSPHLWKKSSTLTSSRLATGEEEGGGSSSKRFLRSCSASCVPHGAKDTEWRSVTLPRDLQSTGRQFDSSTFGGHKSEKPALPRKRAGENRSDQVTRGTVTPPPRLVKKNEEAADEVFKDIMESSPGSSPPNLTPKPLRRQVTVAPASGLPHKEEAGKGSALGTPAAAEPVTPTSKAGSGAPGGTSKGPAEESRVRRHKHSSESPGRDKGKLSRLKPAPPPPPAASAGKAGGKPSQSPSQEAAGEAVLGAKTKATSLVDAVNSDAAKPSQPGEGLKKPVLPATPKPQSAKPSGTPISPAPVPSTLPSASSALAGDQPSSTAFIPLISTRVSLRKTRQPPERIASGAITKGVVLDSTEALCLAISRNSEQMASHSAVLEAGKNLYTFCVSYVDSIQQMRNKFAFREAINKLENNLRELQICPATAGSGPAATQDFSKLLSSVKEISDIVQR
T4 sequence (P42684 whole entry): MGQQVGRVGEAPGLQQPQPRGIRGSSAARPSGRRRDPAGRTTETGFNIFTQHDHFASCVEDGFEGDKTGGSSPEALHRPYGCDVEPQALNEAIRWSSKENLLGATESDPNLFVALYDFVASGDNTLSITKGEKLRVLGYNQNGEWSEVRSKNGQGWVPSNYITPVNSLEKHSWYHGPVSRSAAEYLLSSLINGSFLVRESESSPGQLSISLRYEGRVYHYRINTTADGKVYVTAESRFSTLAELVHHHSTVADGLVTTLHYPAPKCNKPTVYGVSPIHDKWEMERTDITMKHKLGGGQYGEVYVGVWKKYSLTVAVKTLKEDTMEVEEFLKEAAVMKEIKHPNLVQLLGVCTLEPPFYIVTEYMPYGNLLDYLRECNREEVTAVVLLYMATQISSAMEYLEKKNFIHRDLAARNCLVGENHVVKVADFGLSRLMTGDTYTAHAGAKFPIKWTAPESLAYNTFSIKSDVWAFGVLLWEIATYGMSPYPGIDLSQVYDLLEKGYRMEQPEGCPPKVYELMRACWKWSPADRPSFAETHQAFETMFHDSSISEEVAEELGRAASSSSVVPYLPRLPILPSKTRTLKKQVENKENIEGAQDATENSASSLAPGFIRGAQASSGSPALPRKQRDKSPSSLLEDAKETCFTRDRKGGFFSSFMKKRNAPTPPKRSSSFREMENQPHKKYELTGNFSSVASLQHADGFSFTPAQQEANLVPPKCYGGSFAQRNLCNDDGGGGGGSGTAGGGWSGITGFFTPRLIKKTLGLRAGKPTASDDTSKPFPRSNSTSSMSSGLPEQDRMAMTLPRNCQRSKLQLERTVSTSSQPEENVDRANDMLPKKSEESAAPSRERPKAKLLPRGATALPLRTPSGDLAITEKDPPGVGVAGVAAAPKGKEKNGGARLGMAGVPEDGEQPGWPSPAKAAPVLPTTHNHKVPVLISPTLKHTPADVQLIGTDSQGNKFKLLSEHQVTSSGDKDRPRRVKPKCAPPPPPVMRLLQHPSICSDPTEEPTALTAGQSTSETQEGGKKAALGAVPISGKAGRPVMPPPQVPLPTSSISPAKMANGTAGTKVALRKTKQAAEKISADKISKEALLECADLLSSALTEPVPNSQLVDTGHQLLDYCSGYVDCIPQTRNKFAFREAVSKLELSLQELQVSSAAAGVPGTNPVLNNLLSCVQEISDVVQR

With `NCCC(NC(=O)c1cc(Br)c(-c2ccnc3[nH]ccc23)s1)c1ccccc1` (stereo not shown) [GSK1307810A], the CATDS in experiment [1], in experiment [2], in experiment [3], in experiment [4] and in experiment [5] was 0 in each case.
With `NCC(NCc1ccc(-c2ccnc3[nH]ccc23)s1)c1ccccc1` (stereo not shown) [GSK1321565A], the CATDS in experiment [1] is listed as 0; in experiment [2], 0; in experiment [3], 0.2016; in experiment [4], 0; in experiment [5] it was 0. In addition, the potency estimated from few doses in experiment [3] is 820 nM.
`Cc1c(Cn2c(C)c(C)n3c(=O)cc(N4CCOCC4)nc23)cccc1C(F)(F)F` [GSK2328680_KCGS]: the CATDS in experiment [1], in experiment [2], in experiment [3], in experiment [4] and in experiment [5] was 0 throughout.
With `COc1cc(N2CCN(C(C)C)CC2)ccc1Nc1nc(Nc2cccc(F)c2C(=O)O)c2cc[nH]c2n1` [GSK1819799A], the CATDS in experiment [1], in experiment [2], in experiment [3], in experiment [4] and in experiment [5] was 0 in each case.
On to `O=c1cc(N2CCOCC2)nc2n(Cc3cccc(Cl)c3Cl)c3ccccc3n12` [GSK2299009A], for which the CATDS in experiment [1], in experiment [2], in experiment [3], in experiment [4] and in experiment [5] was 0 each time.
For `CCCN1CCCC(c2ccc(Nc3nc(Nc4cc(F)ccc4C(N)=O)c4cc[nH]c4n3)c(OC)c2)C1` (stereo not shown) [GSK1173862A], the CATDS in experiment [1], in experiment [2], in experiment [3], in experiment [4] and in experiment [5] was 0 each time.
Consider `COc1cc2ncn(-c3cc(OCC4CCCCC4)c(C(N)=O)s3)c2cc1OC` [GSK204559A], for which the CATDS in experiment [1], in experiment [2], in experiment [3], in experiment [4] and in experiment [5] was 0 in each case.
As to `N#Cc1ccc(CCNc2nccc(-c3cccc(CN4CCNCC4)c3)n2)cc1` [GSK2137462A], the CATDS in experiment [1], in experiment [2], in experiment [3], in experiment [4] and in experiment [5] was 0 throughout.
As to `COc1cc2ncn(-c3cc(OCCc4ccccc4)c(C(N)=O)s3)c2cc1OC` [GSK204925A], the CATDS in experiment [1], in experiment [2], in experiment [3], in experiment [4] and in experiment [5] was 0 each time.
In the case of `O=C1Nc2ccccc2/C1=C1\CCc2cc(O)ccc21` [GR105659X], the CATDS in experiment [1], in experiment [2], in experiment [3], in experiment [4] and in experiment [5] was 0 throughout.
As for `Cc1occc1-c1nc(N)c(OC[C@@H](N)Cc2c[nH]c3ccccc23)cc1-c1cc2c(C)n[nH]c2cn1` [GSK1660450B], the CATDS in experiment [1], in experiment [2], in experiment [3], in experiment [4] and in experiment [5] was 0 in each case. The potency estimated from few doses in experiment [3] is > 1000 nM.
Take `COc1cc2nc(-c3cc(F)ccc3O)nc(N[C@@H]3CNC[C@H]3C(C)(C)O)c2cc1OC` [CCT241533]: the CATDS in experiment [1], in experiment [2], in experiment [3], in experiment [4] and in experiment [5] was 0 each time.
Turning to `CC1=C(C(=O)Nc2ccc3[nH]ncc3c2)C(c2ccc(F)cc2)NC(=O)N1` (stereo not shown) [GSK180736A], the CATDS in experiment [1], in experiment [2], in experiment [3], in experiment [4] and in experiment [5] was 0 in each case.
Consider `C[C@@H]1CCCCN1c1cc(-c2ccc3c(N)n[nH]c3c2)nc(N)n1` [GSK2258759A], for which the CATDS in experiment [1], in experiment [2], in experiment [3], in experiment [4] and in experiment [5] was 0 each time.
Consider `O=c1cc(N2CCOCC2)nc2n(Cc3cccc(C(F)(F)F)c3)ccn12` [GSK2297543A], for which the CATDS in experiment [1], in experiment [2], in experiment [3], in experiment [4] and in experiment [5] was 0 in each case.
Regarding `O=c1cc(N2CCOCC2)nc2n(Cc3ccc(F)c(Cl)c3)ccn12` [GSK2297099A], the CATDS in experiment [1], in experiment [2], in experiment [3], in experiment [4] and in experiment [5] was 0 throughout.
`Nc1ncc(-c2ccc3nccc(-c4ccncc4)c3c2)cc1S(=O)(=O)N1CCOCC1` [GSK1627798A]: the CATDS in experiment [1], in experiment [2], in experiment [3], in experiment [4] and in experiment [5] was 0 throughout.
In the case of `COc1cc2nccc(Oc3ccc(NC(=O)C4(C(=O)Nc5ccc(F)cc5)CC4)cc3)c2cc1OC` [Cabozantinib, reference compound], the CATDS in experiment [1], in experiment [2], in experiment [3], in experiment [4] and in experiment [5] was 0 throughout.
In the case of `Cc1cn(-c2cc(NC(=O)c3ccc4c(c3)CN(c3cncnc3)C[C@@H]4C)cc(C(F)(F)F)c2)cn1` [Compound D2202-1], the CATDS in experiment [1], in experiment [2], in experiment [3], in experiment [4] and in experiment [5] was 0 throughout.
Turning to `CNC(=O)c1c(F)cccc1Nc1nc(Nc2cc3c(cc2OC)CCN3C(=O)CN(C)C)nc2[nH]ccc12` [GSK1838705], the CATDS in experiment [1], in experiment [2], in experiment [3], in experiment [4] and in experiment [5] was 0 throughout.
Turning to `COc1ccc(Nc2nccc(-c3ccc(NC(=O)c4cc5cc(F)ccc5[nH]4)cc3)n2)cc1` [GSK1229496A], the CATDS in experiment [1], in experiment [2], in experiment [3], in experiment [4] and in experiment [5] was 0 in each case. The potency estimated from few doses in experiment [3] was > 1000 nM.
For the compound `COc1cc2ncnc(Nc3cccc(Cl)c3F)c2cc1O[C@H]1CC[C@H]([C@@H]2NCCNC2=O)CC1` [BI00133844], the CATDS in experiment [1], in experiment [2], in experiment [3], in experiment [4] and in experiment [5] was 0 in each case.
For the compound `COC(=O)c1cccc(NC(=O)NC2CCN(c3ccnc(Nc4cc(OC)c(OC)c(OC)c4)n3)C2)c1` (stereo not shown) [GSK1379767A], the CATDS in experiment [1], in experiment [2], in experiment [3], in experiment [4] and in experiment [5] was 0 throughout. Moreover, the potency estimated from few doses in experiment [3] is > 1000 nM.
`C[C@H]1CC[C@@H](C(=O)Nc2ccccc2)CN1c1cc(-c2ccc3c(N)n[nH]c3c2)nc(N)n1` [GSK2283293_KCGS]: the CATDS in experiment [1], in experiment [2], in experiment [3], in experiment [4] and in experiment [5] was 0 in each case.
